# Test results reported in patent US20050019331A1, “Synthetic peptide neutrophil cell chemotactic agents” (Chrysalis Biotechnology, priority 1994, published 2005).
# Ends that are not written are not given here.
# Columns and labels:
# fibroblasts [1] = assay: Parallel 125I-NTP-Y binding studies with fibroblasts
# Text: The chemotactic effects of NTP appeared to be mediated by interaction with specific NTP receptor binding sites on the surface of neutrophils.
# [2] = test system: NTP receptor on human neutrophils; assay: 125I-NTP-Y saturation binding to neutrophils
# Procedure: NTP was radiolabeled using IODO-GEN® (Pierce) catalyzed iodination (Fraker and Speck, 1978, specifically incorporated herein by reference). 5 mCi of Na^125I (Amersham, UK) was incubated in glass tubes coated with IODO-GEN® with 250 μg of HPLC-purified NTP-Y in 250 μl of Phosphate Buffered Saline (PBS), pH 7.2. After 7 minutes, the radiolabeled peptide was separated from free ^125Iodine by its adsorption to a C-18 SEP PAK® column, followed by elution with 100% acetonitrile. The eluted radioactive peptide was then dried under vacuum to remove acetonitrile, rehydrated with PBS, and stored as frozen aliquots (−20° C.) at a concentration of 100 μg/ml.
# For saturation binding assays, […] were incubated at 37° C. with indicated concentrations of ^125I-NTP-Y in 100 μl of DV medium containing 20 mM HEPES buffer, pH 7.4, in 0.6 ml eppendorf tubes. The binding was terminated and ^125I-NTP-Y that was bound to cells was separated from free ^125I-NTP-Y by rapid filtration and rinsing (2× with 10 mls of 4° C. PBS) through Whatman GF/C filters, using a Millipore filtration apparatus. Radioactivity on filters was then counted in a gamma counter (Beckman Instruments, Inc., model Gamma 4000). Nonspecific binding of ^125I-NTP-Y was measured in the presence of a 500-fold molar excess of unlabeled peptide and was subtracted from total binding to determine the amount of specific (saturable) binding.
# NTP was synthesized with an N-terminal tyrosine (YRRPESKATNATLDPR—SEQ ID NO.: 6), analyzed for chemotactic activity, and radiolabeled as described in methods. […] Specific binding was determined by subtracting the nonspecific binding of ^125I-NTP-Y (binding in the presence of 500-fold molar excess of unlabeled NTP-Y) from the total binding. Insert represents a Scatchard-like analysis of the binding isotherm using total radioactivity in the medium as a measure of free ligand. […]
# human neutrophils = assay: Neutrophil chemotaxis in Modified Boyden 48-well Microchemotaxis Chambers; type: cell-based; conditions: for maximal stimulation of neutrophil chemotaxis relative to thrombin or IL-8: FIG. 3 vs FIG. 1C
# Procedure: Human neutrophils were isolated from blood of healthy volunteers, drawn into one-tenth volume of trisodium citrate. The neutrophils were isolated from the blood using established Ficoll-Hypaque (MONO POLYRESOLVING MEDIUM™) protocol, Kalmer et al. 1988, specifically incorporated herein by reference. The cells were washed in HBSS containing 20 mM HEPES, pH 7.4 (HHBSS), pelleted by centrifugation (600×g), and resuspended into HHBSS at the indicated density. Trypan blue exclusion assays indicated greater than 97% cell viability.
# Freshly isolated human neutrophils (150,000 cells per 50 μl) were applied to wells of Modified Boyden 48-well Microchemotaxis Chambers (Neuro Probe, Cabin John, Md.) with pre-wet […], PVP-free polycarbonate membranes (Neuro Probe, Cabin John, Md.) (see Mansfield, et al. 1990, which is specifically incorporated herein by reference). The lower well in these chambers were filled with 27 μl of HHBSS solution containing indicated concentrations of substances to be tested. After loading, the chambers were incubated for 2 hours at 37° C. Membranes were removed, rinsed with HHBSS, fixed and stained using DIFF-QUIK® to visualize and quantitate cells that had migrated through the filters. For each assay condition, cells migrating through 4 wells were examined using a Nikon Microscope (at 400×). For each well, the total cells present in 6 random fields were counted and recorded. Each assay represents data from at least three analyses of the same type with neutrophils isolated from at least two individuals.
# Freshly isolated human peripheral blood neutrophils were added to wells of Modified Boyden Microwell Chemotaxis Chambers and the number of cells migrating through the filters was determined as described in Materials and Methods. For each assay, cells migrating through 4 wells were examined, counted, and recorded (6 random fields per well) using a Nikon LabPhot Microscope (400×).
# Human neutrophils were added to wells of Boyden Microwell Chambers and assayed for directed chemotaxis toward indicated concentrations of synthetic peptides representing the tethered ligand region of PART (SFLLRNPNDKYEPF—SEQ ID NO.: 7), or TRAP-508, the high-affinity receptor binding domain of human thrombin ([…]—SEQ ID NO.: 8).
# Indicated concentrations of peptides representing residues 26-41 of the human (SEQ ID NO.: 1) (∇) or hamster (SEQ ID NO.: 2) (∘) PART receptor component were added to lower wells of Boyden Microwell Chambers and neutrophil chemotaxis toward the peptides was assayed as described above.
# [3] = test system: fibroblasts and other cells; conditions: Van Obberghen-Schilling and Pouyssegur 1993; cited from earlier work
# neutrophils = assay: Superoxide generation by stimulated neutrophils (SOD-inhibitable ferricytochrome C reduction); type: cell-based, human; conditions: for O2 released (superoxide generation): 2×10^6 neutrophils/ml, twenty minutes after addition
# Procedure: Superoxide generation was determined by measuring the superoxide dismutase (SOD)-inhibitable reduction of ferricytochrome C (Thomas et al., 1992, incorporated herein by reference). Briefly, 2×10^6 neutrophils/ml were incubated with, ferricytochrome C (433 μg/ml) and glucose (1.1 mM) in phosphate buffered saline (PBS) at 37° C. for five minutes, in presence or absence of 1 μg/ml SOD. Twenty minutes after addition of NTP, IL-8, or PBS, aliquots were removed, cooled to 4° C., and filtered through […] particle separators (Amicon). The optical absorption of the filtrate was then read at 550 nm. The amount of O2 generated was calculated by the difference in absorbance of the samples with or without SOD, using a 15.5 millimolar extinction coefficient at 550 nm for cytochrome C reduction.
# fibroblasts [4] = assay: c-fos and other G-protein initiated signals in fibroblasts; type: cell-based; conditions: compared with proteolytically active thrombin
# Text: Therefore, the PART activating peptide fragment was not sufficient to stimulate chemotaxis.
substance,measurement,setting,value
^125I-NTP-Y: NTP-Y radiolabeled with 125I by IODO-GEN catalyzed iodination (YRRPESKATNATLDPR; also: 125I radiolabel),specific binding to fibroblasts,fibroblasts [1],no detectable specific binding
same,binding to human neutrophils,"[2]; 40 min at 37° C., FIG. 5",specified and saturable
same,NTP receptors per cell (saturation curve and Scatchard-like analysis),"[2]; human neutrophils, FIG. 5 insert",~3000 receptors per cell
same,dose-response curve compared with NTP,"[2]; iodinated peptide, iodination does not alter peptide activity",nearly identical to NTP
"RRPESKATNA TLDPR (RRPESKATNATLDPR) [SEQ ID NO.: 1, peptide representing residues 26-41 of the human PART receptor component]",maximal stimulation of neutrophil chemotaxis relative to thrombin or IL-8,human neutrophils,nearly equivalent to that seen with thrombin or IL-8
"RQPESEMTDA TVNPR (RQPESEMTDATVNPR) [SEQ ID NO.: 2, peptide representing residues 26-41 of the hamster PART receptor component]",maximal stimulation of neutrophil chemotaxis relative to thrombin or IL-8,human neutrophils,nearly equivalent to that seen with thrombin or IL-8
NTP: released N-terminal fragment peptide of PART; species (human or hamster) not stated at these places (RQPESEMTDATVNPR),activity on fibroblasts and other cells,[3],no apparent activity
same,neutrophil chemotaxis,"human neutrophils; NTP, Example 4",stimulated neutrophil chemotaxis
same,superoxide generation compared to IL-8,neutrophils; 800 nM NTP vs 400 nmolar IL-8,negligible
same,O2 released (superoxide generation),neutrophils; 800 nM NTP,9 ± 0.9 nmol
SFFLRN [reference compound],neutrophil chemotaxis,human neutrophils; concentrations up to 2000-fold higher than NTP,did not
"SFLLRNPNDKYEPF [PART activating peptide fragment, synthetic peptide representing the tethered ligand region of PART, reference compound]",neutrophil chemotaxis,"human neutrophils; concentrations up to 7.0 μM, FIG. 2",only marginally chemotactic
same,stimulation of c-fos and other G-protein initiated signals,fibroblasts [4],nearly the same extent as proteolytically active thrombin
IL-8: recombinant IL-8,EC50,"human neutrophils; FIG. 1, 2 hours at 37° C., read-out: concentration required for half-maximal stimulation of neutrophil chemotaxis",~10 nM
same,O2 released (superoxide generation),neutrophils; 400 nmolar IL-8,102 ± 16 nmol
